Laboratory results as given in ChEMBL document CHEMBL4411307, “N,N'-diaryl-bishydrazones in a biphenyl platform: Broad spectrum antifungal agents” (Eur J Med Chem, 2019).
Values after ≈ are worked out from the molar mass of the structure shown. Active and inactive are the calls of the source. No cut-off for these calls is given here.

What was measured:
[1] = system: Listeria monocytogenes; test: Antibacterial activity against Listeria monocytogenes; format: functional, organism-based
[2] = system: Staphylococcus aureus; test: Antibacterial activity against methicillin-resistant Staphylococcus aureus; format: functional, organism-based
[3] = system: Enterococcus; test: Antibacterial activity against vancomycin-resistant Enterococcus; format: functional, organism-based
[4] = system: Candida albicans; test: Antifungal activity against fluconazole/ITC-resistant Candida albicans ATCC 10231 measured after 48 hrs by CLSI M27-A3 protocol based method; format: functional; details: ATCC 10231, 48 h
[5] = system: Candida albicans; test: Antifungal activity against fluconazole/ITC-resistant Candida albicans ATCC 64124 measured after 48 hrs by CLSI M27-A3 protocol based method; format: functional; details: ATCC 64124, 48 h
[6] = system: Candida albicans; test: Antifungal activity against fluconazole/ITC-susceptible Candida albicans ATCC MYA-2876 measured after 48 hrs by CLSI M27-A3 protocol based method; format: functional; details: ATCC MYA-2876, 48 h
[7] = system: Candida albicans; test: Antifungal activity against fluconazole/ITC-resistant Candida albicans ATCC 90819 measured after 48 hrs by CLSI M27-A3 protocol based method; format: functional; details: ATCC 90819, 48 h
[8] = system: Candida albicans; test: Antifungal activity against fluconazole/ITC-resistant Candida albicans ATCC MYA-1237 measured after 48 hrs by CLSI M27-A3 protocol based method; format: functional; details: ATCC MYA-1237, 48 h
[9] = system: Pichia kudriavzevii; test: Antifungal activity against Candida krusei ATCC 6258 measured after 48 hrs by CLSI M27-A3 protocol based method; format: functional; details: ATCC 6258, 48 h
[10] = system: Candida parapsilosis; test: Antifungal activity against Candida parapsilosis ATCC 22019 measured after 48 hrs by CLSI M27-A3 protocol based method; format: functional; details: Lodderomyces parapsilosis, ATCC 22019, 48 h
[11] = system: Aspergillus flavus; test: Antifungal activity against Aspergillus flavus ATCC MYA-3631 measured after 48 hrs by CLSI M38-A2 protocol based method; format: functional; details: ATCC MYA-3631, 48 h
[12] = system: Aspergillus nidulans; test: Antifungal activity against Aspergillus nidulans ATCC 38163 measured after 48 hrs by CLSI M38-A2 protocol based method; format: functional; details: ATCC 38163, 48 h
[13] = system: Aspergillus terreus; test: Antifungal activity against Aspergillus terreus ATCC MYA-3633 measured after 48 hrs by CLSI M38-A2 protocol based method; format: functional; details: ATCC MYA-3633, 48 h
[14] = system: A549; test: Cytotoxicity against human A549 cells after 24 hrs by resazurin based assay; format: cell-based; details: a549, 24 h
[15] = system: BEAS-2B; test: Cytotoxicity against human BEAS2B cells after 24 hrs by resazurin based assay; format: cell-based
[16] = Selectivity index, ratio of CC50 for human A549 cells to MIC for fluconazole/ITC-resistant Candida albicans ATCC 10231; format: toxicity; details: read-out: Selectivity Index
[17] = Selectivity index, ratio of CC50 for human A549 cells to MIC for fluconazole/ITC-resistant Candida albicans ATCC 64124; format: toxicity; details: read-out: Selectivity Index
[18] = Selectivity index, ratio of CC50 for human A549 cells to MIC for fluconazole/ITC-susceptible Candida albicans ATCC MYA-2876; format: toxicity; details: read-out: Selectivity Index
[19] = Selectivity index, ratio of CC50 for human A549 cells to MIC for fluconazole/ITC-resistant Candida albicans ATCC 90819; format: toxicity; details: read-out: Selectivity Index
[20] = Selectivity index, ratio of CC50 for human A549 cells to MIC for fluconazole/ITC-susceptible Candida albicans ATCC MYA-2310; format: toxicity; details: read-out: Selectivity Index
[21] = Selectivity index, ratio of CC50 for human A549 cells to MIC for fluconazole/ITC-resistant Candida albicans ATCC MYA-1237; format: toxicity; details: read-out: Selectivity Index
[22] = Selectivity index, ratio of CC50 for human A549 cells to MIC for fluconazole/ITC-resistant Candida albicans ATCC MYA-1003; format: toxicity; details: read-out: Selectivity Index
[23] = Selectivity index, ratio of CC50 for human A549 cells to MIC for Candida glabrata ATCC 2001; format: toxicity; details: read-out: Selectivity Index
[24] = Selectivity index, ratio of CC50 for human A549 cells to MIC for Candida krusei ATCC 6258; format: toxicity; details: read-out: Selectivity Index
[25] = Selectivity index, ratio of CC50 for human A549 cells to MIC for Candida parapsilosis ATCC 22019; format: toxicity; details: read-out: Selectivity Index
[26] = Selectivity index, ratio of CC50 for human A549 cells to MIC for Aspergillus flavus ATCC MYA-3631; format: toxicity; details: read-out: Selectivity Index
[27] = Selectivity index, ratio of CC50 for human A549 cells to MIC for Aspergillus nidulans ATCC 38163; format: toxicity; details: read-out: Selectivity Index
[28] = Selectivity index, ratio of CC50 for human A549 cells to MIC for Aspergillus terreus ATCC MYA-3633; format: toxicity; details: read-out: Selectivity Index
[29] = Hemolytic activity in mouse RBC at […] after 1 hr relative to control; format: ADME, cell-based, Erythrocyte; details: red blood cells (erythrocytes), read-out: Activity; note: tested at 0.48 µg/mL
[30] = Hemolytic activity in mouse RBC at […] ug/ml after 1 hr relative to control; format: ADME, cell-based, Erythrocyte; details: red blood cells (erythrocytes), read-out: Activity
[31] = Hemolytic activity in mouse RBC at 1.95 ug/ml after 1 hr relative to control; format: ADME, cell-based, Erythrocyte; details: red blood cells (erythrocytes), read-out: Activity
[32] = Hemolytic activity in mouse RBC at 3.9 ug/ml after 1 hr relative to control; format: ADME, cell-based, Erythrocyte; details: red blood cells (erythrocytes), read-out: Activity
[33] = Hemolytic activity in mouse RBC at 7.8 ug/ml after 1 hr relative to control; format: ADME, cell-based, Erythrocyte; details: red blood cells (erythrocytes), read-out: Activity
[34] = Hemolytic activity in mouse RBC at 31.3 ug/ml after 1 hr relative to control; format: ADME, cell-based, Erythrocyte; details: red blood cells (erythrocytes), read-out: Activity
[35] = Hemolytic activity in mouse RBC at 62.5 ug/ml after 1 hr relative to control; format: ADME, cell-based, Erythrocyte; details: red blood cells (erythrocytes), read-out: Activity
[36] = Selectivity index, ratio of compound concentration showing <20 to <30% hemolysis in mouse RBC to MIC for fluconazole/ITC-resistant Candida albicans ATCC 10231; format: toxicity; details: red blood cells (erythrocytes), read-out: Selectivity Index
[37] = Selectivity index, ratio of compound concentration showing <20 to <30% hemolysis in mouse RBC to MIC for fluconazole/ITC-resistant Candida albicans ATCC 64124; format: toxicity; details: red blood cells (erythrocytes), read-out: Selectivity Index
[38] = Selectivity index, ratio of compound concentration showing <20 to <30% hemolysis in mouse RBC to MIC for fluconazole/ITC-susceptible Candida albicans ATCC MYA-2876; format: toxicity; details: red blood cells (erythrocytes), read-out: Selectivity Index
[39] = Selectivity index, ratio of compound concentration showing <20 to <30% hemolysis in mouse RBC to MIC for fluconazole/ITC-resistant Candida albicans ATCC 90819; format: toxicity; details: red blood cells (erythrocytes), read-out: Selectivity Index
[40] = Selectivity index, ratio of compound concentration showing <20 to <30% hemolysis in mouse RBC to MIC for fluconazole/ITC-susceptible Candida albicans ATCC MYA-2310; format: toxicity; details: mouse red blood cells (RBC), read-out: Selectivity Index
[41] = Selectivity index, ratio of compound concentration showing <20 to <30% hemolysis in mouse RBC to MIC for fluconazole/ITC-resistant Candida albicans ATCC MYA-1237; format: toxicity; details: mouse red blood cells (RBC), read-out: Selectivity Index
[42] = Selectivity index, ratio of compound concentration showing <20 to <30% hemolysis in mouse RBC to MIC for fluconazole/ITC-resistant Candida albicans ATCC MYA-1003; format: toxicity; details: mouse red blood cells (RBC), read-out: Selectivity Index
[43] = Selectivity index, ratio of compound concentration showing <20 to <30% hemolysis in mouse RBC to MIC for Candida glabrata ATCC 2001; format: toxicity; details: mouse red blood cells (RBC), read-out: Selectivity Index
[44] = Selectivity index, ratio of compound concentration showing <20 to <30% hemolysis in mouse RBC to MIC for Candida krusei ATCC 6258; format: toxicity; details: mouse red blood cells (RBC), read-out: Selectivity Index
[45] = Selectivity index, ratio of compound concentration showing <20 to <30% hemolysis in mouse RBC to MIC for Candida parapsilosis ATCC 22019; format: toxicity; details: mouse red blood cells (RBC), read-out: Selectivity Index
[46] = Selectivity index, ratio of compound concentration showing <20 to <30% hemolysis in mouse RBC to MIC for Aspergillus flavus ATCC MYA-3631; format: toxicity; details: mouse red blood cells (RBC), read-out: Selectivity Index
[47] = Selectivity index, ratio of compound concentration showing <20 to <30% hemolysis in mouse RBC to MIC for Aspergillus nidulans ATCC 38163; format: toxicity; details: mouse red blood cells (RBC), read-out: Selectivity Index
[48] = Selectivity index, ratio of compound concentration showing <20 to <30% hemolysis in mouse RBC to MIC for Aspergillus terreus ATCC MYA-3633; format: toxicity; details: mouse red blood cells (RBC), read-out: Selectivity Index
[49] = molecular target: Voltage-gated inwardly rectifying potassium channel KCNH2 (Homo sapiens, UniProt Q12809); test: Inhibition of [3H]-dofetilide binding to human ERG expressed in HEK293 cell membranes measured after 1 hr by liquid scintillation counting method
Sequence of Voltage-gated inwardly rectifying potassium channel KCNH2 (Q12809 whole entry): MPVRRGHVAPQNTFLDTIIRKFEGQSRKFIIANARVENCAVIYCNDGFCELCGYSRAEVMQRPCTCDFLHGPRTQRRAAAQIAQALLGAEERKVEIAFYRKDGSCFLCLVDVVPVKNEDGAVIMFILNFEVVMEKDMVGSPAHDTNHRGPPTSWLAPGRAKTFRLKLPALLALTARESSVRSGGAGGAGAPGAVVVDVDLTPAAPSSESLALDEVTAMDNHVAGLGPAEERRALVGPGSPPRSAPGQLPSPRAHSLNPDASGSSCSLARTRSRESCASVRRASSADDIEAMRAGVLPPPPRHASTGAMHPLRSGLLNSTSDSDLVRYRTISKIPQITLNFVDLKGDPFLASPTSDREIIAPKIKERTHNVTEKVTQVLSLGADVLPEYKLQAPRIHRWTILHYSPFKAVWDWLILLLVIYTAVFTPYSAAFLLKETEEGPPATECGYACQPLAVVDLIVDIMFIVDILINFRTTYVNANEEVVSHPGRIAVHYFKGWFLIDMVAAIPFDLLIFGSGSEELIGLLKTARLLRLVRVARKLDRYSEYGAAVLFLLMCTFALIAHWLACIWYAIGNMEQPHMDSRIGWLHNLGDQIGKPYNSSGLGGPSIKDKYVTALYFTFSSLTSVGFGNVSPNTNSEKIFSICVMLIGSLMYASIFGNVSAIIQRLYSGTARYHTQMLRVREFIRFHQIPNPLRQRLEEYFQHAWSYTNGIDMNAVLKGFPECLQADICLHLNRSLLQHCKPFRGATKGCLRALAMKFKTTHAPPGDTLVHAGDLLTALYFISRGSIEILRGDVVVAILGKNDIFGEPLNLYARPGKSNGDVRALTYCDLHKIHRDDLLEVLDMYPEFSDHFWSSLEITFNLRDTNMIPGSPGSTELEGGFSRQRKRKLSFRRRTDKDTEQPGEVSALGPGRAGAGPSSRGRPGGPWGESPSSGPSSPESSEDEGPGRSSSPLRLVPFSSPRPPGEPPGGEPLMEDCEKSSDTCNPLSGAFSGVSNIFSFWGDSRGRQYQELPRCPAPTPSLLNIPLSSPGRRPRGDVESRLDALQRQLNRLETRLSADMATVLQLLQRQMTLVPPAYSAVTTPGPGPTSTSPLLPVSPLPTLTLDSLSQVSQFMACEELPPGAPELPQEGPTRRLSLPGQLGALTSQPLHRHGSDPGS

COc1ccc(N/N=C/c2ccc(-c3cccc(/C=N/Nc4ccc(OC)cc4)c3)cc2)cc1
Activity [1]: inactive
Activity [2]: inactive
Activity [3]: inactive
MIC [4]: 1.95 µg/mL (≈ 4.33 µM)
MIC [5]: 15.6 µg/mL (≈ 34.6 µM)
MIC [6]: 3.9 µg/mL (≈ 8.66 µM)
MIC [7]: 3.9 µg/mL (≈ 8.66 µM)
MIC [8]: 3.9 µg/mL (≈ 8.66 µM)
MIC [9]: 3.9 µg/mL (≈ 8.66 µM)
MIC [10]: > 31.3 µg/mL
MIC [11]: > 31.3 µg/mL
MIC [12]: 31.3 µg/mL (≈ 69.5 µM)
MIC [13]: > 31.3 µg/mL
CC50 [14]: 18.2 µg/mL (≈ 40.4 µM)
CC50 [15]: 14.1 µg/mL (≈ 31.3 µM)
selectivity ratio [16]: 9.3
selectivity ratio [17]: 1.2
selectivity ratio [18]: 4.7
selectivity ratio [19]: 4.7
selectivity ratio [20]: 2.3
selectivity ratio [21]: 4.7
selectivity ratio [22]: 2.3
selectivity ratio [23]: 2.3
selectivity ratio [24]: 4.7
selectivity ratio [25]: 0.6
selectivity ratio [26]: 0.6
selectivity ratio [27]: 0.6
selectivity ratio [28]: 0.6
hemolysis at 1 h, […] [29]: 0%
hemolysis at 1 h, 15.6 ug/ml ([30]; at 15.6 µg/mL): 7.8%
hemolysis at 1 h, 0.975 ug/ml [30]: 2.6%
hemolysis at 1 h, 1.95 ug/ml [31]: 4.5%
hemolysis at 1 h, 3.9 ug/ml [32]: 3%
hemolysis at 1 h, 7.8 ug/ml [33]: 2.6%
hemolysis at 1 h, 31.3 ug/ml [34]: 9.6%
hemolysis at 1 h, 62.5 ug/ml [35]: 18.8%
selectivity ratio [36]: 1 to 32
selectivity ratio [37]: 1 to 32
selectivity ratio [38]: 1 to 32
selectivity ratio [39]: 1 to 32
selectivity ratio [40]: 1 to 32
selectivity ratio [41]: 1 to 32
selectivity ratio [42]: 1 to 32
selectivity ratio [43]: 1 to 32
selectivity ratio [44]: 1 to 32
selectivity ratio [45]: 1 to 32
selectivity ratio [46]: 1 to 32
selectivity ratio [47]: 1 to 32
selectivity ratio [48]: 1 to 32
IC50 [49]: > 30 µM
